Results on two compounds are retold here after patent publication US20200181284A1, “EPIGENETIC INHIBITORS FOR SENSITIZING HEMATOLOGIC OR OTHER MALIGNANCIES TO GLUCOCORTICOID THERAPY” (UNIVERSITY OF SOUTHERN CALIFORNIA, priority 2017, published 2020).

Test [1] deals with interaction between HP1γ and G9a. The test is described as follows: Co-immunoprecipitation of HA-hG9a with HP1γ in Cos-7 cells. It is filed as cell-based, African green monkey. The settings on record: 2 μM, 24 h. The procedure: Cos-7 or A549 cells were seeded on 10-cm dishes the day before transfection. Cells were transiently transfected (where indicated) using Lipofectamine 2000 (Invitrogen) with 5 μg each of the indicated plasmids according to the manufacturer's protocol. At 48 h after transfection, cells were treated (or not) with dex for the indicated time period, and cell extracts were prepared in RIPA buffer (50 mM Tris-HCl, pH 8, 150 mM NaCl, 1 mM EDTA, 1% NP-40 and 0.25% deoxycholate) supplemented with protease inhibitor tablets (Roche Molecular Biochemicals) and phosphatase inhibitors (1 mM NaF, 1 mM Na3VO4 and 1 mM β-glycerophosphate). Protein extracts were incubated with 1 μg of the indicated primary antibodies overnight at 4° C. with shaking. Protein A/G Plus Agarose (Santa Cruz sc-2003) beads were added and the mixture was incubated 2 hr at 4° C. The immunoprecipitates were separated on SDS-PAGE. […] In immunoprecipitation experiments 3% of the input of each sample was analyzed by immunoblot using the antibodies listed. […]

For test [2], the system named is NALM6 cells. Nature of the test: Immunoblot of apoptosis markers (cleaved caspase 3, caspase 7, PARP1) in NALM6 cells. Type of test: cell-based, human. The settings on record: NALM6, 24-hour treatment with KDM inhibitor. Here is the method: Cells were treated as indicated, and cell extracts were prepared in RIPA buffer ([…] Tris-HCl, pH 8, 150 mM NaCL, 1 mM EDTA, 1% NP-40, and 0.25% deoxycholate) supplemented with protease inhibitor tablets (Roche Molecular Biochemicals) and phosphatase inhibitors (1 mM NaF, 1 mM Na3VO4, and 1 mM β-glycerophosphate). Protein extracts were incubated overnight at 4° C. with shaking with 1 μg of antibodies against EHMT2 (Sigma G6919), EHMT1 (Millipore 09-078), or pan phospho-threonine (Millipore AB1607). Protein A/G plus agarose beads (Santa Cruz sc-2003) were added, and the mixture was incubated 2 h at 4° C. The immunoprecipitates were separated on SDS-PAGE. […]
FIGS. 40A, 40B, 40C, 40D-1, 40D-2, 40D-3, and 40D-4 show Aurora kinase B inhibitors sensitizing NALM6 cells to GC-induced cell death. As shown in FIGS. 40A and 40B, NALM6 cells were treated with the indicated dex concentration in addition to 0.75 μM ZM447439 (FIG. 40A), 16 nM AZD2811 (FIG. 40B), or equivalent volume of vehicle DMSO for 72 h, and cell survival was measured by a fluorescence metabolic assay. In each condition, the value measured with dex was normalized to the fluorescence value measured with ethanol. Percentage of survival is shown as the mean±SEM of 4 independent experiments and p-values for individual dex concentrations were calculated using a paired t-test. *p≤0.05, **p≤0.01, * * *p≤0.001. […]

For test [3], the system named is GR target genes in NALM6 cells. Nature of the test: RT-qPCR of GR target genes in NALM6 cells. It is filed as cell-based, human. The settings on record: NALM6 cells, KDM inhibitor. Here is the method: RNA was isolated using TRIzol (Invitrogen) according to the manufacturer's instructions. Reverse transcription reaction was performed using Superscript III (ThermoFisher) according to specifications with 1 μg of total RNA as template. Quantitative PCR amplification of the resulting cDNA was performed on a Roche LightCycler 480 using SYBR green I master mix (Roche). mRNA levels were normalized to the level of b-actin mRNA.
FIGS. 40A, 40B, 40C, 40D-1, 40D-2, 40D-3, and 40D-4 show Aurora kinase B inhibitors sensitizing NALM6 cells to GC-induced cell death. As shown in FIGS. 40A and 40B, NALM6 cells were treated with the indicated dex concentration in addition to 0.75 μM ZM447439 (FIG. 40A), 16 nM AZD2811 (FIG. 40B), or equivalent volume of vehicle DMSO for 72 h, and cell survival was measured by a fluorescence metabolic assay. In each condition, the value measured with dex was normalized to the fluorescence value measured with ethanol. Percentage of survival is shown as the mean±SEM of 4 independent experiments and p-values for individual dex concentrations were calculated using a paired t-test. *p≤0.05, **p≤0.01, * * *p≤0.001. F-test comparing the two curves: p≤0.001. Insets show the EC50s that were calculated as the concentration at which half the cells remained alive, compare to vehicle controls. Error bars depict the SEM of 4 independent experiments and p-values were calculated to compare AURKB inhibitor treatment to DMSO using a paired t-test ** p≤0.01, * * *p≤0.001. […] The indicated proteins were then examined by immunoblot. As shown in FIGS. 40D-1, 40D-2, 40D-3, and 40D-4, NALM6 cells pre-treated with AZD2811 (16 nM) or DMSO for 24 h, were then treated for 8 h with 100 nM dex or ethanol. mRNA levels for the indicated GR target genes were measured by RT-qPCR and normalized to β-actin mRNA levels.
FIGS. 54A, 54B, and 54C highlight the GR Target genes that require G9a and GLP as coactivators.
(In qPCR the cycle at which signal appears reflects the starting amount.)

Regarding `COc1cc2c(Nc3ccc(NC(=O)c4ccccc4)cc3)ncnc2cc1OCCCN1CCOCC1` [ZM447439, N-[4-[[6-methoxy-7-(3-morpholin-4-ylpropoxy)quinazolin-4-yl]amino]phenyl]benzamide], the “interaction between HP1γ and G9a” value in test [1] is given as “increased”.
As to `Clc1ccc(N/N=C(\c2ccccc2)c2ccccn2)nc1` [JIB-04, 5-chloro-N-[(E)-[phenyl(pyridin-2-yl)methylidene]amino]pyridin-2-amine], the “dex-induced cleavage of caspase-3, caspase-7, and PARP1” value in test [2] was “enhanced”. In test [3], the “dex-induced expression of FKBPS (independent of G9a and GLP)” value is given as “no effect”; the “dex-induced expression of G9a/GLP-dependent GR target genes (TXNIP, GILZ, and NFKBIA)” value was “enhanced”.
